{"source": "paper PMC12830989", "about": "“Subcellular glycan-mannose receptor binding kinetics correlate with myeloid cell function” (Nature Communications, 2025)", "key": {"[1]": {"test_system": "bone-marrow derived mouse dendritic cells (BMDCs)", "assay": "Glyco-PAINT-APP single-molecule glycan binding on live WT BMDC", "conditions": "for koff−1 / kon: Suppl. Fig 9, glycan SLP, median", "description": "(§1) Single molecule imaging was performed on a Nikon Ti2 N-STORM system equipped with TIRF module, Z piezo element, perfect focus system for axial drift correction and an OkoLab incubator with temperature and CO2 controller (37 °C and 5% CO2) for live-cell imaging. Recordings were acquired using the 647 nm excitation laser (160 mW, 1.9 kW/cm^2). Upon laser excitation, fluorescence was collected by a 100x 1.49 NA oil-immersion objective, passed through a quad-band dichroic mirror (97335 Nikon), and detected by a Hamamatsu ORCA Flash 4.0 CMOS camera with 160 nm pixel size. The signal was collected using the following settings: 512 × 512 pixel region, no binning, pixel depth 16-bit, exposure time 50 ms, live-cell observation and 2D-STORM (lens out), zoom 1x, lens x0.4, and for live-cell observation at 37 °C, the correction collar was set to position 8160.\n(§2) 5 x 10^4 CHO-MR or 1 x 10^5 WT, MR^−/− BMDC or BMDM were seeded in 8-well glass-bottomed microscopy slides (Ibidi, 80827) in complete medium. After equilibration in the microscope incubator, fluorescent glycan was added at 5 nM for CHO-MR and 10 nM for BMDC or BMDM experiments. Then, cells were brought into focus using brightfield illumination and 2000 frames (at 50 ms intervals) were recorded within a single field-of-view at 40–60% of maximum 647 nm laser power using TIRF illumination. For indicated experiments, Cytochalasin D (Focus Biomolecules) was added to a final concentration of 10 µM for 30 min prior to acquisition.\n(§3) Processing of recordings using Glyco-PAINT-APP was performed as described in a step-by-step procedure in the Supplementary Software Manual in the Supplementary Information and accompanying Supplementary Videos 1 and 2. For the TrackMate processing, a batch file (Experiment Info.csv) containing the experiment metadata and tracking parameters was created. Threshold values were set to 5, 10 or 15 such that no more than 1.500.000 spots were detected. Recordings were then processed in TrackMate using the ‘Run TrackMate Batch’ plugin provided by the Glyco-PAINT-APP. Through this plugin, spot detection and tracking by TrackMate[70] was performed as indicated in the batch file using the Simple LAP tracker algorithm with a maximum frame gap of 3, a max linking distance of 0.6 μm and a gap closing max distance of 1.2 μm. Tracks with only two spots were discarded. For the parameter sensitivity analysis, each tracking or spot detection was varied as indicated, whilst the others were kept at aforementioned values (Basis scenario).\n(§4) With the Glyco-PAINT-APP utility ‘Generate Squares’, a grid of squares was overlaid, and kinetic properties for each square were calculated. Default parameters for grid processing are (deviations are mentioned in figure captions): Nr of Squares in row 20, Minimum Tracks to Calculate Tau 20, Min allowable R Squared 0.1, Min Required Density Ratio 2, Maximum Allowable Variability 10 and Neighbour Mode Free.\n(§5) For every recording, a background track count was calculated by averaging the track count of the 40 (10% of the total number of squares) least dense squares. Only squares for which the track count exceeded the Min Required Density Ratio of 2 were considered (and the remaining ignored as background). For each square, the variability was calculated and only squares for which the variability was less than the Maximum Allowable Variability of 10 were considered. For squares meeting both the Minimum Required Density Ratio and Maximum Allowable Variability criteria, and containing at least the Minimum Tracks to Calculate Tau kinetic parameters, including kon, koff and MSD were calculated as in Riera et al.[10], or copied from the TrackMate Tracks table output (for velocity, displacement, and track duration)."}, "[2]": {"biological_target": "T1, mannose receptor (MR) on CHO-MR cells (Mus musculus, UniProt Q61830)", "T1 construct": "expressed in transfected cells; host or cells: CHO (CHO-MR overexpression line, gift of Luisa Martinez-Pomares)", "T1 sequence (Q61830 20-1456)": "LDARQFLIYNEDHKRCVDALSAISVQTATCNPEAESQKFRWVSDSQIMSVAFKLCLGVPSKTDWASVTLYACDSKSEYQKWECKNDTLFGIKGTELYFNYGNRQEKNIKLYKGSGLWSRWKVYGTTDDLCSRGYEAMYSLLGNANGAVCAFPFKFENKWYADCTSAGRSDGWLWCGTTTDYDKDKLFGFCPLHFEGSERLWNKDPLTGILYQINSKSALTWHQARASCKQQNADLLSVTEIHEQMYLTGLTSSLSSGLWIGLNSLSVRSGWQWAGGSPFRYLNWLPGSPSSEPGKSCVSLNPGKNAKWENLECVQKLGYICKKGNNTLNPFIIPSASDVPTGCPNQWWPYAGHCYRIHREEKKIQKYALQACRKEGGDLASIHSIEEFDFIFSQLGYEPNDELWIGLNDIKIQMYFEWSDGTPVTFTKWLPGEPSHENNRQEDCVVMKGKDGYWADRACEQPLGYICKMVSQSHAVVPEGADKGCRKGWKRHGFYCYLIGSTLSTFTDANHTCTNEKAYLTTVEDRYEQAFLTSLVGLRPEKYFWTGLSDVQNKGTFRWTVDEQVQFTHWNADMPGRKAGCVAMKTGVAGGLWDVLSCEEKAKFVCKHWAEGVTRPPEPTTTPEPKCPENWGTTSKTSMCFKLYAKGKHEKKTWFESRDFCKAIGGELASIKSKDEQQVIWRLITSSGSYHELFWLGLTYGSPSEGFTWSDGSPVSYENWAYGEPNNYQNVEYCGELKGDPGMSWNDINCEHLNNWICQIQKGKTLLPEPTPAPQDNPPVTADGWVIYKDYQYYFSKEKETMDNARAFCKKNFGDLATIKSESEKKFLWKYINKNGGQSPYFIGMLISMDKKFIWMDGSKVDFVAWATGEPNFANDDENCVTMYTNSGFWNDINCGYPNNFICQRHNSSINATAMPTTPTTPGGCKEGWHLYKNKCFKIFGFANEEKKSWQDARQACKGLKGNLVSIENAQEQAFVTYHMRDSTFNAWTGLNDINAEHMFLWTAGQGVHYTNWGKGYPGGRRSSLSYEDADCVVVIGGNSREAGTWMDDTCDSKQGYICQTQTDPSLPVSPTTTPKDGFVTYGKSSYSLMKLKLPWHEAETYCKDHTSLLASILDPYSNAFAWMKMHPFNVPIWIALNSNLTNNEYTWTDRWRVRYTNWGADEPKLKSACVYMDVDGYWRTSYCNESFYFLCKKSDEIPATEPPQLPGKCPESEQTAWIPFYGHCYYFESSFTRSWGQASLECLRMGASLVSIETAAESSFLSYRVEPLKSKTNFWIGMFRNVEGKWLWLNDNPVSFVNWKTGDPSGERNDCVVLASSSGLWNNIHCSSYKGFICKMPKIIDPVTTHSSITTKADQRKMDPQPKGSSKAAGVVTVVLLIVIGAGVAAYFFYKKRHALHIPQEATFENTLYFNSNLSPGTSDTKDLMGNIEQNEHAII", "assay": "Glyco-PAINT-APP single-molecule glycan binding on CHO-MR cells", "conditions": "Suppl. Fig 9, glycan SLP, median", "description": "as §1, §2, §3, §4, §5"}}, "data": [{"substance": "Ac-Lys(triMan)-TEG-Asp-Glu-Val-Ser-Gly-Leu-Glu-Gln-Leu-Glu-Ser-Ile-Ile-Asn-Phe-Glu-Lys-Leu-Ala-Ala-Ala-Ala-Ala-Lys(sCy5)-NH2 (DEVSGLEQLESIINFEKLAAAAAK; Ac-Lys(triMan)-TEG, sulfo-Cy5, C-amide; printed: Asp-Glu-Val-Ser-Gly-Leu-Glu-Gln-Leu-Glu-Ser-Ile-Ile-Asn-Phe-Glu-Lys-Leu-Ala-Ala-Ala-Ala-Ala-Lys) [1 Tri(4), monovalent trimannosylated OVA SLP with sulfo-Cy5]", "values": [{"measurement": "event density, dwell time and diffusion coefficient after CytD treatment", "setting": "[1]; BMDC, Cytochalasin D treated versus untreated", "result": "increased significantly"}, {"measurement": "koff−1", "setting": "[1]; BMDC + CytD", "result": 124, "unit": "ms"}, {"measurement": "kon", "setting": "[1]; BMDC + CytD", "result": 1.5, "unit": "evts μm−2 sec−1"}, {"measurement": "koff−1", "setting": "[1]; BMDC", "result": 88, "unit": "ms"}, {"measurement": "kon", "setting": "[1]; BMDC", "result": 1, "unit": "evts μm−2 sec−1"}, {"measurement": "koff−1", "setting": "[2]; CHO-MR + CytD", "result": 144, "unit": "ms"}, {"measurement": "kon", "setting": "[2]; CHO-MR + CytD", "result": 7.1, "unit": "evts μm−2 sec−1"}, {"measurement": "koff−1", "setting": "[2]; CHO-MR", "result": 79, "unit": "ms"}, {"measurement": "kon", "setting": "[2]; CHO-MR", "result": 2.8, "unit": "evts μm−2 sec−1"}]}]}
